{"source": "patent US9549553B2", "about": "“Active compound combinations having insecticidal properties” (BAYER CROPSCIENCE AKTIENGESELLSCHAFT, priority 2013, dated 2017)", "format_in_all_cases": "in vivo", "key": {"[1]": {"test_system": "fall armyworm larvae (Spodoptera frugiperda)", "test": "Spodoptera frugiperda - spray test (maize leaf sections)", "conditions": "mortality", "method": "To produce a suitable preparation of the active compound, 1 part by weight of active compound is mixed with the stated amount of solvent and emulsifier, and the concentrate is diluted with emulsifier-containing water to the desired concentration. To produce a suitable preparation of a spore suspension the spores are diluted with emulsifier-containing water to the desired concentration.\nMaize (Zea mais) leaf sections are sprayed with a preparation of the active ingredient of the desired concentration. Once dry, the leaf sections are infested with fall armyworm larvae (Spodoptera frugiperda).\nAfter the specified period of time, mortality in % is determined. 100% means all caterpillars have been killed and 0% means none of the caterpillars have been killed. The mortality values determined thus are recalculated using the Colby-formula (see sheet 1)."}, "[2]": {"test_system": "green peach aphid (Myzus persicae)", "test": "Myzus persicae - spray test, Example C-1 (Chinese cabbage leaf-disks)", "conditions": "mortality", "method": "To produce a suitable preparation of active compound, 1 part by weight of active compound is mixed with the stated amount of solvent and emulsifier, and the concentrate is diluted with emulsifier-containing water to the desired concentration.\nChinese cabbage (Brassica pekinensis) leaf-disks infected with all instars of the green peach aphid (Myzus persicae) are sprayed with a preparation of the active ingredient of the desired concentration.\nAfter the specified period of time, mortality in % is determined 100% means all aphids have been killed; 0% means none of the aphids have been killed. The mortality values determined thus are recalculated using the Colby-formula (see sheet 1)."}, "[3]": {"test_system": "mustard beetle larvae (Phaedon cochleariae)", "test": "Phaedon cochleariae - spray test, Example B-1 (Chinese cabbage leaf-disks)", "conditions": "mortality", "method": "(§1) To produce a suitable preparation of active compound, 1 part by weight of active compound is mixed with the stated amount of solvent and emulsifier, and the concentrate is diluted with emulsifier-containing water to the desired concentration. To produce a suitable preparation of a spore suspension the spores are diluted with emulsifier-containing water to the desired concentration.\nChinese cabbage (Brassica pekinensis) leaf-disks are sprayed with a preparation of the active ingredient of the desired concentration. Once dry, the leaf disks are infested with mustard beetle larvae (Phaedon cochleariae).\nAfter the specified period of time, mortality in % is determined. 100% means all beetle larvae have been killed and 0% means none of the beetle larvae have been killed. The mortality values determined thus are recalculated using the Colby-formula (see sheet 1)."}, "[4]": {"test_system": "mustard beetle larvae (Phaedon cochleariae)", "test": "Phaedon cochleariae - spray test, Example B-2 (cabbage leaves)", "conditions": "mortality", "method": "(§2) Solvent: 7 parts by weight of dimethylformamide\nEmulsifier: alkylaryl polyglycol ether\n(§3) To produce a suitable preparation of active compound, 1 part by weight of active compound is mixed with the stated amount of solvent and is diluted with water, containing an emulgator concentration of 1000 ppm, to the desired concentration. Further test concentrations are prepared by dilution with emulsifier containing water Ammonium salt and/or penetration enhancer in a dosage of 1000 ppm are added to the desired concentration if necessary.\nCabbage leaves (Brassica oleracea) are treated by being sprayed with the preparation of the active compound of the desired concentration and are infested with mustard beetle larvae (Phaedon cochleariae).\nAfter the specified period of time mortality in % is determined. 100% means all the beetle larvae have been killed and 0% means none of the beetle larvae have been killed. The mortality values determined thus are recalculated using the Colby-formula (see sheet 1)."}, "[5]": {"test_system": "larvae of the diamondback moth (Plutella xylostella)", "test": "Plutella xylostella - spray test (cabbage leaves)", "conditions": "mortality", "method": "To produce a suitable preparation of active compound, 1 part by weight of active compound is mixed with the stated amount of solvent and emulsifier, and the concentrate is diluted with emulsifier-containing water to the desired concentration Ammonium salt and/or penetration enhancer in a dosage of 1000 ppm are added to the desired concentration if necessary.\nCabbage leaves (Brassica oleracea) are treated by being sprayed with the preparation of the active compound of the desired concentration and are infested with larvae of the diamondback moth (Plutella xylostella).\nAfter the specified period of time, the mortality in % is determined. 100% means all the caterpillars have been killed; 0% means none of the caterpillars have been killed. The mortality values determined thus are recalculated using the Colby-formula (see sheet 1)."}, "[6]": {"test_system": "green peach aphid (Myzus persicae)", "test": "Myzus persicae - spray test, Example C-2 (cabbage leaves)", "conditions": "mortality, 0.5 ppm", "method": "as §2\nEmulsifier: alkylaryl polyglycolether\nas §3\nCabbage leaves (Brassica oleracea) which are heavily infested by the green peach aphid (Myzus persicae) are treated by being sprayed with the preparation of the active compound of the desired concentration.\nAfter the specified period of time, mortality in % is determined 100% means all the aphids have been killed; 0% means none of the aphids have been killed. The mortality values determined thus are recalculated using the Colby-formula (see sheet 1)."}, "[7]": {"test_system": "two spotted spidermite (Tetranychus urticae)", "test": "Tetranychus urticae - spray test, OP-resistant (French beans)", "conditions": "mortality, 1 g ai/ha", "method": "as §1\nFrench beans (Phaseolus vulgaris) which are heavily infested with all stages of the two spotted spidermite (Tetranychus urticae), are sprayed with a preparation of the active ingredient of the desired concentration.\nAfter the specified period of time, mortality in % is determined. 100% means all spider mites have been killed and 0% means none of the spider mites have been killed. The mortality values determined thus are recalculated using the Colby-formula (see sheet 1)."}}}
{"smiles": "CC1(C)[C@H](C(=O)O[C@H](C#N)c2cccc(Oc3ccccc3)c2)[C@@H]1C=C(Br)Br", "note": "[Deltamethrin]", "values": [{"measurement": "Efficacy in % after 6d", "setting": "[1]; 0.25 g ai/ha", "value": 0, "unit": "%"}, {"measurement": "Efficacy in % after 6d", "setting": "[2]; 0.15 g ai/ha", "value": 0, "unit": "%"}]}
{"smiles": "Cc1cc(C(F)(C(F)(F)F)C(F)(F)F)ccc1NC(=O)c1cccc(Cl)c1C(=O)NC(C)(C)C#N", "note": "[(I-5)]", "values": [{"measurement": "Efficacy in % after 6d", "setting": "[1]; 0.8 g ai/ha", "value": 33, "unit": "%"}, {"measurement": "Efficacy in % after 6d", "setting": "[3]; 2.5 g ai/ha", "value": 0, "unit": "%"}, {"measurement": "Efficacy in % after 6d", "setting": "[3]; 12 g ai/ha", "value": 0, "unit": "%"}, {"measurement": "Efficacy in % after 3d", "setting": "[4]; 1.2 ppm", "value": 0, "unit": "%"}, {"measurement": "Efficacy in % after 3d", "setting": "[4]; 4.8 ppm", "value": 50, "unit": "%"}, {"measurement": "Efficacy in % after 6d", "setting": "[2]; 1.25 g ai/ha", "value": 0, "unit": "%"}, {"measurement": "Efficacy in % after 6d", "setting": "[2]; 1.5 g ai/ha", "value": 0, "unit": "%"}, {"measurement": "Efficacy in % after 6d", "setting": "[2]; 15 g ai/ha", "value": 0, "unit": "%"}, {"measurement": "Efficacy in % after 3d", "setting": "[5]; 0.25 ppm", "value": 0, "unit": "%"}]}
{"smiles": "CC1(C)C(C=C(Cl)Cl)C1C(=O)OC(C#N)c1ccc(F)c(Oc2ccccc2)c1", "note": "(stereo not drawn) [Beta-Cyfluthrin (II-11), beta-Cyfluthrin]", "values": [{"measurement": "Efficacy in % after 6d", "setting": "[1]; 0.032 g ai/ha", "value": 0, "unit": "%"}, {"measurement": "Efficacy in % after 3d", "setting": "[4]; 1.2 ppm", "value": 0, "unit": "%"}, {"measurement": "Efficacy in % after 6d", "setting": "[6]", "value": 50, "unit": "%"}]}
{"smiles": "CC1(C)[C@H](C(=O)O[C@H](C#N)c2cccc(Oc3ccccc3)c2)[C@@H]1/C=C(\\Cl)C(F)(F)F", "note": "(racemic) [Lambda-Cyhalothrin, lambda-Cyhalothrin]", "values": [{"measurement": "Efficacy in % after 6d", "setting": "[3]; 0.25 g ai/ha", "value": 0, "unit": "%"}, {"measurement": "Efficacy in % after 6d", "setting": "[2]; 0.125 g ai/ha", "value": 0, "unit": "%"}, {"measurement": "Efficacy in % after 6d", "setting": "[7]", "value": 0, "unit": "%"}, {"measurement": "Efficacy in % after 3d", "setting": "[5]; 1 ppm", "value": 0, "unit": "%"}]}
